The values that follow come from patent US12157746B2, “Tetrahydro-1H-pyrazino[2,1-a]isoindolylquinoline compounds for the treatment of autoimmune disease” (F. HOFFMANN-LA ROCHE AG, priority 2018, dated 2024).

The assay deals with T1, human TLR8 (Homo sapiens, UniProt Q9NR97).
T1 sequence (Q9NR97 27-1041): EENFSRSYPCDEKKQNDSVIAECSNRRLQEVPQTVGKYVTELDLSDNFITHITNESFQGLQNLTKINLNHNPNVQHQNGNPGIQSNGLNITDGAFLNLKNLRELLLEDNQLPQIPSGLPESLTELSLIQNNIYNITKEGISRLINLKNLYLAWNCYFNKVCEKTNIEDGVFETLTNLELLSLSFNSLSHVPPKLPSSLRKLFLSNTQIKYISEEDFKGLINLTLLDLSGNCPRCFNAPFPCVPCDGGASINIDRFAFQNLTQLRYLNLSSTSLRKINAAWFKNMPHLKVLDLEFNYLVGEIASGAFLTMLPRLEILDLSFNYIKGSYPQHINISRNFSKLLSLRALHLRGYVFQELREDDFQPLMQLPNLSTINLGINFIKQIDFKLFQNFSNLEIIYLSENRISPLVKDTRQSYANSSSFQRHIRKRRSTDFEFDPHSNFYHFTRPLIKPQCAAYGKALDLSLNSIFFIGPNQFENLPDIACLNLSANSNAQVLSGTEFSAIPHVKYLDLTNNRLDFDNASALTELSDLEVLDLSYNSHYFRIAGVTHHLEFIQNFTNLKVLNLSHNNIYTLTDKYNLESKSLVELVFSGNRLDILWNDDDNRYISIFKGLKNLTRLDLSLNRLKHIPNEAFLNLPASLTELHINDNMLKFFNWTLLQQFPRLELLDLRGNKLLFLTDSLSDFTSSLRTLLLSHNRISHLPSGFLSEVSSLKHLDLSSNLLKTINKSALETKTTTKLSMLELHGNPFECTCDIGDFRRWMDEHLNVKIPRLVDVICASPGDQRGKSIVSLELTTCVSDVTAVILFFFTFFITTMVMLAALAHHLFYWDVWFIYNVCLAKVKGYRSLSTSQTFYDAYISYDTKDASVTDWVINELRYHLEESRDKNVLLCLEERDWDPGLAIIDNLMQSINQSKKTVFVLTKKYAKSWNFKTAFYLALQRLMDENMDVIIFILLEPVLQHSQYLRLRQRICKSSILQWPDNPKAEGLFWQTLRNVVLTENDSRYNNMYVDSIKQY
In words: HEK293-Blue-hTLR-8 cells assay. The settings on record: HEK293-Blue-hTLR8 cells, R848 stimulation, 20 hrs, SEAP reporter; read-out: HEK/hTLR8 IC50. The class given is cell-based. The source says: HEK293-Blue-hTLR-8 Cells Assay:
A stable HEK293-Blue-hTLR-8 cell line was purchased from InvivoGen (Cat. #: hkb-htlr8, San Diego, California, USA). These cells were originally designed for studying the stimulation of human TLR8 by monitoring the activation of NF-κB. A SEAP (secreted embryonic alkaline phosphatase) reporter gene was placed under the control of the IFN-β minimal promoter fused to five NF-κB and AP-1-binding sites. The SEAP was induced by activating NF-κB and AP-1 via stimulating HEK-Blue hTLR8 cells with TLR8 ligands. Therefore the reporter expression was declined by TLR8 antagonist under the stimulation of a ligand, such as R848, for incubation of 20 hrs. The cell culture supernatant SEAP reporter activity was determined using QUANTI-Blue™kit (Cat. #: rep-qb1, Invivogen, San Diego, Ca, USA) at a wavelength of 640 nm, a detection medium that turns purple or blue in the presence of alkaline phosphatase.
HEK293-Blue-hTLR8 cells were incubated at a density of 250,000-450,000 cells/mL in a volume of 170 μL in a 96-well plate in Dulbecco's Modified Eagle's medium (DMEM) containing 4.5 g/L glucose, 50 U/mL penicillin, […], […], 2 mM L-glutamine, 10% (v/v) heat-inactivated fetal bovine serum with addition of 20 μL test compound 1n a serial dilution in the presence of final DMSO at 1% and 10 μL of 60 uM R848 in above DMEM, perform incubation under 37° C. in a CO2 incubator for 20 hrs. Then 20 μL of the supernatant from each well was incubated with 180 μL Quanti-blue substrate solution at 37° C. for 2 hrs and the absorbance was read at 620-655 nm using a spectrophotometer. The signaling pathway that TLR8 activation leads to downstream NF-κB activation has been widely accepted, and therefore similar reporter assay was modified for evaluating TLR8 antagonist.
For the molecule `CO[C@@H]1CN(c2ccc3c(c2)CN2[C@H](C)CN(c4ccc(C#N)n5nccc45)C[C@H]32)CC[C@H]1N` [Example 104, 4-[(4R,10bS)-8-[(3R,4R)-4-amino-3-methoxy-1-piperidyl]-4-methyl-3,4,6,10b-tetrahydro-1H-pyrazino[2,1-a]isoindol-2-yl]pyrazolo[1,5-a]pyridine-7-carbonitrile], the IC50 was 3.2 nM.

In the case of `C[C@@H]1CN(c2ccc(C#N)c3ncccc23)C[C@@H]2c3ccc(N4C[C@H](N)[C@@H](O)C4)cc3CN12` [Example 40A, 5-[(4R,10bS)-8-[(3S,4S)-3-amino-4-hydroxy-pyrrolidin-1-yl]-4-methyl-3,4,6,10b-tetrahydro-1H-pyrazino[2,1-a]isoindol-2-yl]quinoline-8-carbonitrile], the IC50 stood at 1.4 nM. The figure for `C[C@@H]1CN(c2ccc(C#N)c3ncccc23)C[C@@H]2c3cccc(N4CCNCC4)c3CN12` [Example 8, 5-[(4R,10bS)-4-methyl-7-piperazin-1-yl-3,4,6,10b-tetrahydro-1H-pyrazino[2,1-a]isoindol-2-yl]quinoline-8-carbonitrile] is under 3.2 nM; for `[2H]c1ccc2c(N3C[C@@H](C)N4Cc5cc(N[C@H]6CNC[C@H]6F)ccc5[C@H]4C3)ccc(C#N)c2n1` [Example 91, 5-[(4R,10bS)-8-[[(3S,4R)-4-fluoropyrrolidin-3-yl]amino]-4-methyl-3,4,6,10b-tetrahydro-1H-pyrazino[2,1-a]isoindol-2-yl]-2-deuterio-quinoline-8-carbonitrile] it is 0.6 nM; for `C[C@@H]1CN(c2ccc(C#N)c3ncccc23)C[C@@H]2c3ccc(N4CCNC[C@H]4CO)cc3CN12` [Example 11, 5-[(4R,10S)-8-[(2S)-2-(hydroxymethyl)piperazin-1-yl]-4-methyl-3,4,6,10b-tetrahydro-1H-pyrazino[2,1-a]isoindol-2-yl]quinoline-8-carbonitrile] it is under 3.2 nM. The figure for `C[C@@H]1CN(c2ccc(C#N)c3nccnc23)C[C@@H]2c3ccc(N4CCNCC4)cc3CN12` [Example 7, 8-[(4R,10bS)-4-methyl-8-piperazin-1-yl-3,4,6,10b-tetrahydro-1H-pyrazino[2,1-a]isoindol-2-yl]quinoxaline-5-carbonitrile] is under 3.2 nM; for `C[C@@H]1CN(c2ccc3c(c2)CN2[C@H](C)CN(c4ccc(C#N)n5nccc45)C[C@H]32)CCN1` [Example 97, 4-[(4R,10bS)-4-methyl-8-[(3R)-3-methylpiperazin-1-yl]-3,4,6,10b-tetrahydro-1H-pyrazino[2,1-a]isoindol-2-yl]pyrazolo[1,5-a]pyridine-7-carbonitrile] it is 1 nM. With `C[C@@H]1CN(c2ccc(C#N)c3ncccc23)C[C@@H]2c3ccc(N4CCNC[C@@](C)(O)C4)cc3CN12` [Example 55B, 5-[(4R,10bS)-8-[(6R)-6-hydroxy-6-methyl-1,4-diazepan-1-yl]-4-methyl-3,4,6,10b-tetrahydro-1H-pyrazino[2,1-a]isoindol-2-yl]quinoline-8-carbonitrile], the IC50 was under 3.2 nM. Regarding `C[C@@H]1CN(c2ccc(C#N)c3ncccc23)C[C@@H]2c3ccc(C4CNC4)cc3CN12` [Example 29, 5-[(4R,10bS)-8-(azetidin-3-yl)-4-methyl-3,4,6,10b-tetrahydro-1H-pyrazino[2,1-a]isoindol-2-yl]quinoline-8-carbonitrile], the IC50 was under 3.2 nM. On to `C[C@@H]1CN(c2ccc(C#N)c3ncccc23)C[C@@H]2c3ccc(N4CC[C@@H](N)C4)cc3CN12` [Example 20, 5-[(4R,10bS)-8-[(3R)-3-aminopyrrolidin-1-yl]-4-methyl-3,4,6,10b-tetrahydro-1H-pyrazino[2,1-a]isoindol-2-yl]quinoline-8-carbonitrile], for which the IC50 is under 3.2 nM. `C[C@@H]1CN(c2ccc(C#N)c3ncccc23)C[C@@H]2c3ccc(N[C@@H]4CNC[C@@H]4F)cc3CN12` [Example 32, 5-[(4R,10bS)-8-[[(3R,4S)-4-fluoropyrrolidin-3-yl]amino]-4-methyl-3,4,6,10b-tetrahydro-1H-pyrazino[2,1-a]isoindol-2-yl]quinoline-8-carbonitrile]: the IC50 was under 3.2 nM.

For `C[C@@H]1CN(c2ccc(C#N)n3nccc23)C[C@@H]2c3ccc(N4C[C@H](N)[C@@H](O)C4)cc3CN12` [Example 111, 4-[(4R,10bS)-8-[(3S,4S)-3-amino-4-hydroxy-pyrrolidin-1-yl]-4-methyl-3,4,6,10b-tetrahydro-1H-pyrazino[2,1-a]isoindol-2-yl]pyrazolo[1,5-a]pyridine-7-carbonitrile], the IC50 was 2 nM. Regarding `C[C@@H]1CN(c2ccc(C#N)n3nccc23)C[C@@H]2c3ccc(N4CCNCC4)cc3CN12` [Example 5, 4-[(4R,10bS)-4-methyl-8-piperazin-1-yl-3,4,6,10b-tetrahydro-1H-pyrazino[2,1-a]isoindol-2-yl]pyrazolo[1,5-a]pyridine-7-carbonitrile], the IC50 is under 3.2 nM.

Regarding `C[C@@H]1CN(c2ccc(C#N)c3ncccc23)C[C@@H]2c3ccc(N4CCNC[C@@H]4CO)cc3CN12` [Example 10, 5-[(4R,10bS)-8-[(2R)-2-(hydroxymethyl)piperazin-1-yl]-4-methyl-3,4,6,10b-tetrahydro-1H-pyrazino[2,1-a]isoindol-2-yl]quinoline-8-carbonitrile], the IC50 was under 3.2 nM. With `C[C@@H]1CN(c2ccc(C#N)n3nccc23)C[C@@H]2c3ccc(N4C[C@@H](N)[C@H](O)C4)cc3CN12` [Example 110, 4-[(4R,10bS)-8-[(3R,4R)-3-amino-4-hydroxy-pyrrolidin-1-yl]-4-methyl-3,4,6,10b-tetrahydro-1H-pyrazino[2,1-a]isoindol-2-yl]pyrazolo[1,5-a]pyridine-7-carbonitrile], the IC50 stood at 5 nM. The figure for `N#Cc1ccc(N2CCN3Cc4cc(N5CCNCC5)ccc4C3C2)c2scnc12` (stereo not drawn) [Example 4, 7-(8-piperazin-1-yl-3,4,6,10b-tetrahydro-1H-pyrazino[2,1-a]isoindol-2-yl)-1,3-benzothiazole-4-carbonitrile] is under 3.2 nM; for `CO[C@H]1CN(c2ccc3c(c2)CN2C3CN(c3ccc(C#N)c4ncccc34)C[C@H]2C)C[C@@H]1N` (single isomer, unassigned) [Example 16A] it is under 3.2 nM. Turning to `C[C@@H]1CN(c2ccc(C#N)n3nccc23)C[C@@H]2c3ccc(N4CCOC[C@H](N)C4)cc3CN12` [Example 101, 4-[(4R,10bS)-8-[(6R)-6-amino-1,4-oxazepan-4-yl]-4-methyl-3,4,6,10b-tetrahydro-1H-pyrazino[2,1-a]isoindol-2-yl]pyrazolo[1,5-a]pyridine-7-carbonitrile], the IC50 worked out at 5.2 nM.
